Measured values reported in PubChem BioAssay (NCI).
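Each compound was tested at five concentrations against cells in 96-well plates for 48 hours. TGI: concentration producing complete growth inhibition.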

What was measured:
Assay in all cases: DTP human tumour cell line panel, 48 h
SF-268 CNS = tested on: SF-268 CNS
UACC-257 melanoma = tested on: UACC-257 melanoma
SNB-78 CNS = tested on: SNB-78 CNS
SK-MEL-2 melanoma = tested on: SK-MEL-2 melanoma
TK-10 renal = tested on: TK-10 renal
A549 NSCLC = tested on: A549 NSCLC
HT29 colon = tested on: HT29 colon
LXFL 529 NSCLC = tested on: LXFL 529 NSCLC
SR leukemia = tested on: SR leukemia
SN12C renal = tested on: SN12C renal
K-562 leukemia = tested on: K-562 leukemia
SW-620 colon = tested on: SW-620 colon
NCI-H226 lung = tested on: NCI-H226 lung
KM12 colon = tested on: KM12 colon
SF-295 CNS = tested on: SF-295 CNS
ACHN renal = tested on: ACHN renal
SF-539 CNS = tested on: SF-539 CNS
HCT-116 colon = tested on: HCT-116 colon
RPMI-8226 leukemia = tested on: RPMI-8226 leukemia
NCI-H23 lung = tested on: NCI-H23 lung
EKVX NSCLC = tested on: EKVX NSCLC
SK-MEL-28 melanoma = tested on: SK-MEL-28 melanoma
COLO 205 colon = tested on: COLO 205 colon
DMS 114 small cell lung = tested on: DMS 114 small cell lung
U251 CNS = tested on: U251 CNS
SNB-19 CNS = tested on: SNB-19 CNS
UO-31 renal = tested on: UO-31 renal
HCC-2998 colon = tested on: HCC-2998 colon
RXF 393 renal = tested on: RXF 393 renal
HOP-92 NSCLC = tested on: HOP-92 NSCLC
MALME-3M melanoma = tested on: MALME-3M melanoma
786-0 renal = tested on: 786-0 renal
OVCAR-8 ovarian = tested on: OVCAR-8 ovarian
DMS 273 small cell lung = tested on: DMS 273 small cell lung
MOLT-4 leukemia = tested on: MOLT-4 leukemia
HCT-15 colon = tested on: HCT-15 colon
KM20L2 colon = tested on: KM20L2 colon
OVCAR-5 ovarian = tested on: OVCAR-5 ovarian
NCI-H522 lung = tested on: NCI-H522 lung
HOP-18 NSCLC = tested on: HOP-18 NSCLC
SK-OV-3 ovarian = tested on: SK-OV-3 ovarian
M14 melanoma = tested on: M14 melanoma
SK-MEL-5 melanoma = tested on: SK-MEL-5 melanoma
IGROV1 ovarian = tested on: IGROV1 ovarian
A498 renal = tested on: A498 renal
HOP-62 NSCLC = tested on: HOP-62 NSCLC
M19-MEL melanoma = tested on: M19-MEL melanoma
OVCAR-4 ovarian = tested on: OVCAR-4 ovarian
UACC-62 melanoma = tested on: UACC-62 melanoma
DLD-1 colon = tested on: DLD-1 colon
SNB-75 CNS = tested on: SNB-75 CNS
HL-60(TB) leukemia = tested on: HL-60(TB) leukemia
CCRF-CEM leukemia = tested on: CCRF-CEM leukemia

COC(=O)c1cc(Cl)ccc1NC(=O)C1CCCCC1
TGI (SF-268 CNS): > 100 µM
TGI (UACC-257 melanoma): > 100 µM
TGI (SNB-78 CNS): > 100 µM
TGI (SK-MEL-2 melanoma): > 100 µM
TGI (TK-10 renal): > 100 µM
TGI (A549 NSCLC): > 100 µM
TGI (HT29 colon): > 100 µM
TGI (LXFL 529 NSCLC): > 100 µM
TGI (SR leukemia): > 100 µM
TGI (SN12C renal): > 100 µM
TGI (K-562 leukemia): > 100 µM
TGI (SW-620 colon): > 100 µM
TGI (NCI-H226 lung): > 100 µM
TGI (KM12 colon): > 100 µM
TGI (SF-295 CNS): > 100 µM
TGI (ACHN renal): > 100 µM
TGI (SF-539 CNS): > 100 µM
TGI (HCT-116 colon): > 100 µM
TGI (RPMI-8226 leukemia): > 100 µM
TGI (NCI-H23 lung): > 100 µM
TGI (EKVX NSCLC): > 100 µM
TGI (SK-MEL-28 melanoma): > 100 µM
TGI (COLO 205 colon): > 100 µM
TGI (DMS 114 small cell lung): > 100 µM
TGI (U251 CNS): > 100 µM
TGI (SNB-19 CNS): > 100 µM
TGI (UO-31 renal): > 100 µM
TGI (HCC-2998 colon): > 100 µM
TGI (RXF 393 renal): > 100 µM
TGI (HOP-92 NSCLC): > 100 µM
TGI (MALME-3M melanoma): > 100 µM
TGI (786-0 renal): > 100 µM
TGI (OVCAR-8 ovarian): > 100 µM
TGI (DMS 273 small cell lung): > 100 µM
TGI (MOLT-4 leukemia): > 100 µM
TGI (HCT-15 colon): > 100 µM
TGI (KM20L2 colon): > 100 µM
TGI (OVCAR-5 ovarian): > 100 µM

O=C1c2ccccc2N2OC3C4CCC(C4)C3C12c1ccccc1 (stereo unspecified)
TGI (SF-268 CNS): > 100 µM
TGI (UACC-257 melanoma): > 100 µM
TGI (NCI-H522 lung): > 100 µM
TGI (HOP-18 NSCLC): > 100 µM
TGI (A549 NSCLC): > 100 µM
TGI (HT29 colon): > 100 µM
TGI (LXFL 529 NSCLC): > 100 µM
TGI (SR leukemia): > 100 µM
TGI (SN12C renal): > 100 µM
TGI (K-562 leukemia): > 100 µM
TGI (SK-OV-3 ovarian): > 100 µM
TGI (M14 melanoma): > 100 µM
TGI (SW-620 colon): > 100 µM
TGI (SK-MEL-5 melanoma): > 100 µM
TGI (NCI-H226 lung): > 100 µM
TGI (SF-295 CNS): > 100 µM
TGI (IGROV1 ovarian): > 100 µM
TGI (ACHN renal): > 100 µM
TGI (SF-539 CNS): > 100 µM
TGI (HCT-116 colon): > 100 µM
TGI (A498 renal): > 100 µM
TGI (RPMI-8226 leukemia): > 100 µM
TGI (NCI-H23 lung): > 100 µM
TGI (EKVX NSCLC): > 100 µM
TGI (HOP-62 NSCLC): > 100 µM
TGI (M19-MEL melanoma): > 100 µM
TGI (SK-MEL-28 melanoma): > 100 µM
TGI (OVCAR-4 ovarian): > 100 µM
TGI (UACC-62 melanoma): > 100 µM
TGI (COLO 205 colon): > 100 µM
TGI (DMS 114 small cell lung): > 100 µM
TGI (U251 CNS): > 100 µM
TGI (SNB-19 CNS): > 100 µM
TGI (DLD-1 colon): > 100 µM
TGI (SNB-75 CNS): > 100 µM
TGI (UO-31 renal): > 100 µM
TGI (HCC-2998 colon): > 100 µM
TGI (RXF 393 renal): 77.8 µM
TGI (HL-60(TB) leukemia): > 100 µM
TGI (HOP-92 NSCLC): > 100 µM
TGI (MALME-3M melanoma): > 100 µM
TGI (786-0 renal): > 100 µM
TGI (OVCAR-8 ovarian): > 100 µM
TGI (DMS 273 small cell lung): > 100 µM
TGI (MOLT-4 leukemia): > 100 µM
TGI (HCT-15 colon): > 100 µM
TGI (KM20L2 colon): > 100 µM
TGI (CCRF-CEM leukemia): > 100 µM
